Here are results for twelve molecules from patent US20250154193A1, “STEROID COMPOUND, AND PREPARATION METHOD THEREFOR AND APPLICATION THEREOF” (CHOLESGEN (SHANGHAI) CO., LTD., priority 2022, published 2025).

The experiment deals with SREBP pathway. The experiment in a line: SREBP luciferase reporter gene system (SRE-luciferase assay) in Huh-7/SRE-Luc cells. Format: cell-based. Particulars: Homo sapiens, sterol-deficient medium, compound treatment 16 hours, luciferase/GFP ratio. The method, then:
Huh-7/SRE-Luc, a human hepatocellular carcinoma cell line, was grown in a culture medium containing DMEM, 10% fetal bovine serum, 100 units/mL penicillin, 100 µg/mL streptomycin, and 200 μg/mL G418.
The Huh-7/SRE-Luc cell line is a human hepatocellular carcinoma cell line Huh-7 stably expressing LDLR promoter-luciferase and green fluorescent protein (GFP). The LDLR promoter region contains a sterol regulatory element (SRE) that can effectively and sensitively respond to the regulation of the transcription factor SREBP. The GFP signal serves as an internal reference to indicate changes in cell number. Therefore, this cell line can be used to screen for active small molecules that regulate the SREBP signaling pathway. […] Cells were incubated in a sterol-deficient medium (5% lipoprotein-deficient serum, 2 μM Lovastatin, 10 μM mevalonate) and treated with corresponding concentrations of compounds for 16 hours. After compound treatment, the cells were lysed with lysis buffer (E397A, Promega), followed by the addition of luciferase substrate (E1500, Promega). The SRE-driven luciferase activity was measured using a BioTek Synergy HTX microplate reader (including but not limited to this type of instrument). The fluorescence intensity of enhanced green fluorescent protein (EGFP) was also measured using the BioTek microplate reader (including but not limited to this type of instrument) and used as an internal reference. The ratio of SRE-driven luciferase activity to GFP fluorescence intensity was used as an indicator of SREBP pathway activity. The test data of each test compound was analyzed using Prism software to obtain the IC50 parameter of the compound.
The inhibitory effect of the compounds of the present disclosure on the SREBP pathway was tested by the method of bioassay example 2. The concentration gradient of each compound was designed as 0.01, 0.03, 0.1, 0.3, 1.0, 3.0, and […], with DMSO as a vehicle control.
The term IC50 denotes the concentration at which inhibition is half-maximal. Take `C[C@H](CCCC(C)(C)O)[C@H]1CC[C@H]2[C@@H]3CC[C@]4(O)[C@@H](O)[C@@H](O)CC[C@]4(C)[C@H]3CC[C@]12C` (single isomer, unassigned) [compound 248, cholest-3β,4,5,25-tetraol]: the IC50 amounted to 0.766 µM. On to `C[C@H](CCC[C@H](O)c1ccccc1F)[C@H]1CC[C@H]2[C@@H]3CC[C@H]4[C@@H](O)[C@@H](O)CC[C@]4(C)[C@H]3CC[C@]12C` (single isomer, unassigned) [compound 280, 24-[R-(2-fluorophenyl)(hydroxy)methyl]-5α-cholan-30,40-diol or 24-[S-(2-fluorophenyl)(hydroxy)methyl]-5α-cholan-30,40-diol], for which the IC50 turned out to be 0.118 µM.

Take `COc1ccccc1[C@H](O)CCC[C@@H](C)[C@H]1CC[C@H]2[C@@H]3CC[C@H]4[C@@H](O)[C@@H](O)CC[C@]4(C)[C@H]3CC[C@]12C` (single isomer, unassigned) [compound 325, 24-[S-hydroxy(2-methoxyphenyl)methyl]-5α-cholan-3β,4β-diol or 24-[R-hydroxy(2-methoxyphenyl)methyl]-5α-cholan-3β,4β-diol]: the 50% inhibitory concentration (IC50) was 0.09 µM.

`C[C@H](CCCC(C)(C)O)[C@H]1CC[C@H]2[C@@H]3CC[C@H]4C(=NO)[C@@H](O)CC[C@]4(C)[C@H]3CC[C@]12C` (stereo in doubt) [compound 273, [(1R,3aS,3bS,5aR,6E,7S,9aR,9bS,11aR)-7-hydroxy-1-[(2R)-6-hydroxy-6-methylheptan-2-yl]-9a,11a-dimethylhexadecahydro-1H-cyclopenta[1,2-a]phenanthren-6-ylidene]hydroxylamine]: the half-maximal inhibitory concentration (IC50) came out at 0.279 µM. For `C[C@H](CCCC(C)(C)O)[C@H]1CC[C@H]2[C@@H]3CCC4(O)C[C@@H](O)CC[C@]4(C)[C@H]3CC[C@]12C` (stereo partly drawn) [compound 205, cholest-30,5,25-triol] the value was 0.817 µM. On to `C[C@H](CCCC(C)(C)O)[C@H]1CC[C@H]2[C@@H]3C[C@@H](O)[C@H]4C[C@@H](O)CC[C@]4(C)[C@H]3CC[C@]12C` [compound 206, cholest-3β,6,25-triol], for which the IC50 came out at 0.464 µM. Under `C[C@H](CCCC(C)(C)O)[C@H]1CC[C@H]2[C@@H]3CC(O)C4(O)C[C@@H](O)CC[C@]4(C)[C@H]3CC[C@]12C` (stereo partly drawn) [compound 207, cholest-3β,5,6,25-tetraol] stands 3.09 µM; under `COC1C[C@H]2[C@@H]3CC[C@H]([C@H](C)CCCC(C)(C)O)[C@@]3(C)CC[C@@H]2[C@@]2(C)CC[C@H](O)CC12O` (stereo partly drawn) [compound 208, 6-methoxycholest-3β,5,25-triol], 1.93 µM. Under `C[C@H](CCCC(C)(C)O)[C@H]1CC[C@H]2[C@@H]3C(O)C[C@H]4C[C@@H](O)CC[C@]4(C)[C@H]3CC[C@]12C` (stereo partly drawn) [compound 210, 5α-cholest-3β,7,25-triol] stands 0.837 µM; under `CCC(O)CCC[C@@H](C)[C@H]1CC[C@H]2C3CC[C@H]4C[C@@H](O)CC[C@]4(C)C3CC[C@]12C` (stereo partly drawn) [compound 211, (1R,3aS,5aS,7S,9aS,11aR)-1-[(2R)-6-hydroxyoctan-2-yl]-3a,9a,11a-trimethylhexadecahydro-1H-cyclopenta[1,2-α]phenanthren-7-ol], 0.395 µM. For `C[C@H](CCCC(O)C1CC1)[C@H]1CC[C@H]2[C@@H]3CC[C@H]4C[C@@H](O)CC[C@]4(C)[C@H]3CC[C@]12C` (stereo partly drawn) [compound 217, 24-[cyclopropyl(hydroxy)methyl]-5α-cholan-3β-ol], the 50% inhibitory concentration (IC50) turned out to be 0.329 µM. For `C[C@H](CCCC(O)C(F)(F)F)[C@H]1CC[C@H]2[C@@H]3CC[C@H]4C[C@@H](O)CC[C@]4(C)[C@H]3CC[C@]12C` (stereo partly drawn) [compound 218, 24-(2,2,2-trifluoro-1-hydroxyethyl)-5α-cholan-3β-ol] the value was 0.296 µM.
